Laboratory results: US6362369B1, “Phthalic acid diamide derivatives fluorine-containing aniline compounds as starting material, agricultural and horticultural insecticides, and a method for application of the insecticides” (Nihon Nohyaku Co., Ltd., priority 1997, dated 2002)

Assays:
Assay type in all cases: in vivo
[1] = test system: common cutworm (Spodoptera Litura); experiment: Insecticidal effect on common cutworm (Test Example 2); conditions: 500 ppm, 25° C.; for Insecticidal effect, Test Example 2: cabbage leaf immersed; for Insecticidal effect, Test Example 2 / Insecticidal effect (Test Example 2), judged from mortality: second-instar larvae of common cutworm; for Insecticidal effect (Test Example 2), judged from mortality: 8 days after inoculation
Method: Insecticidal effect on common cutworm (Spodoptera Litura)
After air-drying, it was placed in a plastic Petri dish with a diameter of 9 cm and inoculated with second-instar larvae of common cutworm, after which the dish was closed and then allowed to stand in a room thermostated at 25° C. Eight days after the inoculation, the dead and alive were counted. The mortality was calculated according to the following equation and the insecticidal effect was judged according to the criterion shown in Test Example 1. The test was carried out with triplicate groups of 10 insects. [formula]

[2] = test system: rice leafroller (Cnaphalocrocis medinalis); experiment: Insecticidal effect on rice leafroller (Test Example 3); conditions: 500 ppm, four days after inoculation, 25° C., humidity 70%; for Insecticidal effect, Test Example 3: rice lamina immersed, third-instar larvae of rice leafroller
In short: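 Insecticidal effect is judged by a predefined criterion from dead/alive counts four days after infesting air-dried lamina with third-instar larvae, kept on moistened filter paper at 25° C, 70% humidity.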

[3] = test system: diamondback moth (Plutella xylostella); experiment: Insecticidal effect on diamondback moth (Test Example 1); conditions: diamondback moth; judged by the criterion of Test Example 1
In short: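 Oviposition by adults on Chinese cabbage seedling; immersion; air-dry; 25° C room. Count of hatched larvae at day 6 post-immersion → mortality → effect graded by criterion. Triplicate, 10 insects/group.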

SMILES | Insecticidal effect (Test Example 1), judged from mortality [3] | Insecticidal effect (Test Example 2), judged from mortality ([1]; cabbage leaf dip) | further results
Cc1cc(OC(F)(F)C(F)(Cl)Cl)ccc1NC(=O)c1c(Cl)cccc1C(=O)NC(C)C [compound 228] | – | – | Insecticidal effect, Test Example 2 ([1]; eight days after inoculation): B (99-90); Insecticidal effect, Test Example 3 [2]: A (100)
CC(C)NC(=O)c1cccc(Cl)c1C(=O)Nc1ccc(C(F)(C(F)(F)F)C(F)(F)F)cc1Cl [compound 231] | – | – | Insecticidal effect, Test Example 2 ([1]; eight days after inoculation): B (99-90); Insecticidal effect, Test Example 3 [2]: A (100)
Cc1ccc(NC(=O)c2cccc(Br)c2C(=O)NC(C)C)c(C)c1 [compound 264] | – | – | Insecticidal effect, Test Example 2 ([1]; eight days after inoculation): D (79-50); Insecticidal effect, Test Example 3 [2]: A (100)
Cc1cc(OC(F)(F)C(F)(Cl)Cl)ccc1NC(=O)c1c(I)cccc1C(=O)NC(C)C [compound 445] | – | – | Insecticidal effect on common cutworm (Test Example 2), judged grade ([1]; cabbage leaf dip, second-instar larvae, eight days after inoculation): B (99-90); Insecticidal effect on rice leafroller (Test Example 3), judged grade ([2]; rice lamina dip, third-instar larvae): A (100)
O=C(Nc1ccc(C(F)(F)C(F)(F)F)cc1Cl)c1cccc(Cl)c1C(=O)NCc1ccccc1 [compound 1487] | A (100) | A (100) | –
Cc1cc(C(F)(F)C(F)(F)F)ccc1N(C)C(=O)c1cccc(Cl)c1C(=O)NC(C)c1ccccc1 (stereo not shown) [compound 1554] | A (100) | A (100) | –
CC(C)NC(=O)c1c(Cl)cccc1C(=O)Nc1cc2c(cc1F)OC(F)(F)O2 [compound 1594] | A (100) | A (100) | –
CC(C)NC(=O)c1c(I)cccc1C(=O)Nc1cc2c(cc1F)OC(F)(F)O2 [compound 1595] | A (100) | A (100) | –
CC(C)(C)NC(=O)c1c(I)cccc1C(=O)Nc1cc2c(cc1F)OC(F)(F)O2 [compound 1596] | A (100) | A (100) | –
Cc1cc(OC(F)(F)F)ccc1NC(=O)c1cccc(I)c1C(=O)NC(C)(C)CBr [compound 1605] | A (100) | C (89-80) | –
Cc1cc(C(F)(F)C(F)(F)F)ccc1NC(=O)c1cccc(I)c1C(=O)N[C@@H](C)CBr [compound 1606] | A (100) | A (100) | –
Cc1cc(C(F)(F)C(F)(F)F)ccc1NC(=O)c1cccc(I)c1C(=O)N[C@H](C)CBr [compound 1607] | A (100) | A (100) | –
CC(C)NC(=O)c1c(I)cccc1C(=O)Nc1ccc(C(F)(F)C(F)(F)F)c(Cl)c1 [compound 1608] | A (100) | A (100) | –
CC(C)(C)NC(=O)c1c(I)cccc1C(=O)Nc1ccc(C(F)(F)C(F)(F)F)c(Cl)c1 [compound 1609] | A (100) | A (100) | –
Cc1cc(C(F)(F)C(F)(F)F)c(C)cc1NC(=O)c1cccc(I)c1C(=O)NC(C)C [compound 1610] | A (100) | A (100) | –
Cc1c(NC(=O)c2cccc(I)c2C(=O)NC(C)C)ccc(C(F)(F)C(F)(F)F)c1C [compound 1612] | A (100) | A (100) | –
Cc1c(NC(=O)c2cccc(I)c2C(=O)NC(C)(C)C)ccc(C(F)(F)C(F)(F)F)c1C [compound 1613] | A (100) | A (100) | –
CCN(CC)C(=O)c1c(I)cccc1C(=O)Nc1ccc(-c2ccc(C(F)(F)F)cc2)cc1C [compound 1619] | A (100) | A (100) | –
CC(C)NC(=O)c1c(I)cccc1C(=O)Nc1cc2c(cc1I)OC(F)(F)O2 [compound 1660] | A (100) | A (100) | –
COc1cc(C(F)(F)C(F)(F)F)ccc1NC(=O)c1cccc(I)c1C(=O)NC(C)(C)C [compound 1662] | A (100) | A (100) | –
Cc1cc(C(F)(C(F)(F)F)C(F)(F)F)c(F)cc1NC(=O)c1cccc(I)c1C(=O)NC(C)C [compound 1663] | A (100) | A (100) | –

SMILES | Insecticidal effect (Test Example 1), judged from mortality [3] | Insecticidal effect (Test Example 2), judged from mortality ([1]; cabbage leaf dip) | further results
Cc1cc(C(F)(C(F)(F)F)C(F)(F)F)c(F)cc1NC(=O)c1cccc(I)c1C(=O)NC(C)(C)C [compound 1664] | A (100) | A (100) | –
Cc1cc(C(F)(C(F)(F)F)C(F)(F)F)c(Cl)cc1NC(=O)c1cccc(I)c1C(=O)NC(C)C [compound 1665] | A (100) | A (100) | –
Cc1cc2c(cc1NC(=O)c1cccc(I)c1C(=O)NC(C)C)OC(F)(F)C2(F)F [compound 1666] | A (100) | A (100) | –
Cc1cc(C(F)(C(F)(F)F)C(F)(F)F)ccc1NC(=O)c1cccc(I)c1C(=O)NC(C)C [compound 1667] | A (100) | A (100) | –
Cc1cc(C(F)(C(F)(F)F)C(F)(F)F)ccc1NC(=O)c1cccc(I)c1C(=O)NC(C)(C)C [compound 1668] | A (100) | A (100) | –
CC(C)NC(=O)c1c(I)cccc1C(=O)Nc1ccc(C(F)(C(F)(F)F)C(F)(F)F)cc1F [compound 1669] | A (100) | A (100) | –
CC(C)(C)NC(=O)c1c(I)cccc1C(=O)Nc1ccc(C(F)(C(F)(F)F)C(F)(F)F)cc1F [compound 1670] | A (100) | A (100) | –
CSc1cc(C(F)(C(F)(F)F)C(F)(F)F)ccc1NC(=O)c1cccc(I)c1C(=O)NC(C)C [compound 1671] | A (100) | A (100) | –
CSc1cc(C(F)(C(F)(F)F)C(F)(F)F)ccc1NC(=O)c1cccc(I)c1C(=O)NC(C)(C)C [compound 1672] | A (100) | A (100) | –
CC(C)NC(=O)c1c(I)cccc1C(=O)Nc1ccc2oc(C(F)(F)F)nc2c1Cl [compound 1682] | A (100) | A (100) | –
CC(C)NC(=O)c1c(I)cccc1C(=O)Nc1cc2c(cc1Br)OC(F)(F)C(F)O2 (stereo not shown) [compound 1684] | A (100) | A (100) | –
Cc1c(NC(=O)c2cccc(I)c2C(=O)NC(C)C)ccc(C(F)(C(F)(F)F)C(F)(F)F)c1C [compound 1689] | A (100) | A (100) | –
Cc1c(NC(=O)c2cccc(I)c2C(=O)NC(C)(C)C)ccc(C(F)(C(F)(F)F)C(F)(F)F)c1C [compound 1690] | A (100) | A (100) | –
CC(C)NC(=O)c1c(I)cccc1C(=O)Nc1ccc(C(F)(C(F)(F)F)C(F)(F)F)cc1C(C)C [compound 1691] | A (100) | A (100) | –
CCOc1cc(C(F)(C(F)(F)F)C(F)(F)F)ccc1NC(=O)c1cccc(I)c1C(=O)NC(C)C [compound 1693] | A (100) | A (100) | –
CC(C)NC(=O)c1c(I)cccc1C(=O)Nc1ccc(C(F)(C(F)(F)F)C(F)(F)F)c(F)c1 [compound 1695] | A (100) | A (100) | –
CC(C)(C)NC(=O)c1c(I)cccc1C(=O)Nc1ccc(C(F)(C(F)(F)F)C(F)(F)F)c(F)c1 [compound 1696] | A (100) | A (100) | –
CC(C)NC(=O)c1c(I)cccc1C(=O)Nc1ccc(C(F)(C(F)(F)F)C(F)(F)F)c(Cl)c1 [compound 1697] | A (100) | A (100) | –
CC(C)NC(=O)c1c(I)cccc1C(=O)Nc1ccc(C(F)(C(F)(F)F)C(F)(F)F)cc1Br [compound 1699] | A (100) | A (100) | –
CSc1cc(C(F)(F)C(F)(F)F)ccc1NC(=O)c1cccc(I)c1C(=O)NC(C)C [compound 1700] | A (100) | D (79-50) | –
